{"source": "patent US20090012163A1", "about": "“Compositions containing Mg/Zn/F-CaP plus inhibitors of pro-inflammatory cytokines (alpha ketoalkanoic acid compound) for osteoporosis prevention, therapy and treatment of bone diseases” (priority 2007, published 2009)", "test_system": "TNFa release from stimulated peripheral blood monocytes (PBMCs)", "assay": "Inhibition by ethyl pyruvate of TNFa release from LPS-stimulated PBMCs (ELISA)", "format": "cell-based", "conditions": "for TNFa release, LPS (5 ug/ml) / TNFa release, LPS (10 ug/ml): ELISA; for inhibition at 5000 µM / inhibition at 10000 µM / inhibition at 25000 µM / inhibition at 50000 µM: PBMC", "procedure": "The Effect of Alpha-Ketoalkanoic Acid on TNFa Release from Stimulated Peripheral Blood Monocytes (PBMCS)\nThe cells were cultured in RPMI 1640 supplemented with 1% serum albumin for approximately 12 hours before treating with LPS (Lipopolysaccharide from E. Coli) at increasing concentrations to induce TNFa release. […] The effects of ethyl pyruvate (EP) on PBMC=s macrophages cultures with 5-10 micrograms of LPS was used to stimulate relase of TNFa.\nInhibition by Ethyl Pyruvate of TNFa Release (Measured via ELISA Assay)"}
{"smiles": "CCOC(=O)C(C)=O", "note": "[EP, ethyl pyruvate]", "values": [{"measurement": "TNFa release, LPS (5 ug/ml)", "setting": "EP 5 mM, LPS 5 ug/ml", "value": "450 arbitrary fluorescence units"}, {"measurement": "TNFa release, LPS (10 ug/ml)", "setting": "EP 5 mM, LPS 10 ug/ml", "value": "480 arbitrary fluorescence units"}, {"measurement": "TNFa release, LPS (5 ug/ml)", "setting": "EP 10 mM, LPS 5 ug/ml", "value": "275 arbitrary fluorescence units"}, {"measurement": "TNFa release, LPS (10 ug/ml)", "setting": "EP 10 mM, LPS 10 ug/ml", "value": "310 arbitrary fluorescence units"}, {"measurement": "TNFa release, LPS (5 ug/ml)", "setting": "EP 25 mM, LPS 5 ug/ml", "value": "201 arbitrary fluorescence units"}, {"measurement": "TNFa release, LPS (10 ug/ml)", "setting": "EP 25 mM, LPS 10 ug/ml", "value": "190 arbitrary fluorescence units"}, {"measurement": "TNFa release, LPS (5 ug/ml)", "setting": "EP 50 mM, LPS 5 ug/ml", "value": "200 arbitrary fluorescence units"}, {"measurement": "TNFa release, LPS (10 ug/ml)", "setting": "EP 50 mM, LPS 10 ug/ml", "value": "180 arbitrary fluorescence units"}, {"measurement": "Inhibition of TNFa release (in words)", "setting": "LPS & EP incubated in the cultures, different concentrations", "value": "effective inhibitor of TNFa release"}, {"measurement": "inhibition at 5000 µM", "setting": "EP 5 mM, LPS 5 ug/ml", "value": 12, "unit": "%"}, {"measurement": "inhibition at 5000 µM", "setting": "EP 5 mM, LPS 10 ug/ml", "value": 6, "unit": "%"}, {"measurement": "inhibition at 10000 µM", "setting": "EP 10 mM, LPS 5 ug/ml", "value": 47, "unit": "%"}, {"measurement": "inhibition at 10000 µM", "setting": "EP 10 mM, LPS 10 ug/ml", "value": 59, "unit": "%"}, {"measurement": "inhibition at 25000 µM", "setting": "EP 25 mM, LPS 5 ug/ml", "value": 51, "unit": "%"}, {"measurement": "inhibition at 25000 µM", "setting": "EP 25 mM, LPS 10 ug/ml", "value": 75, "unit": "%"}, {"measurement": "inhibition at 50000 µM", "setting": "EP 50 mM, LPS 5 ug/ml", "value": 51, "unit": "%"}, {"measurement": "inhibition at 50000 µM", "setting": "EP 50 mM, LPS 10 ug/ml", "value": 76, "unit": "%"}]}
